From US11331339B2, “Compound composition with function of promoting bone and joint health and application thereof” (Chenland Nutritionals, Inc., priority 2019, dated 2022)

Assays:
[1] = test system: wistar rats injected with papain; assay: Test IV: walking pain score from sole marks; assay type: in vivo; settings: score 0-4, papain model, 28 days, daily dosage 126 mg/kg
Description: Male wistar rats are randomly divided into a control group, a model group and an experimental group. Each group includes 10 rats. The rats are injected with papain for molding. The rats are administered for 28 days at the same time of molding. Before the rats are put to death, the left and right soles of the rats are evenly imprinted with printing ink of the same color and the rats walk by 0.4 m on a self-made semi-closed rat walking passage. The sole marks are photographed. Three persons independently score the walking pain based on the sole photos according to the following scoring standard for walking pain and measure the walking pain (when the limbs have a pain reaction, the rats move with the minimum contact area of the paws to reduce the pressure on the affected limbs; and when the left and right feet are uneven in stress and the gait is changed, the colors of the soles are different). The sole is divided into four regions: if one region of the left sole is darker than the right sole, the score is 1; if two regions are darker, the score is 2; and the score is added in sequence (0-4 scores). […] The rats administered with the product can alleviate the arthritis to a certain extent, and can walk slightly normally, so as to reflect the degree of arthritis according to the walking scores.

IL-6 = assay: Test I: IL-6 content in serum of rats, same administration time and same dosage; assay type: in vivo, wistar rats; settings: rat serum, daily dosage 125 mg/kg
Description: Male wistar rats are randomly divided into a control group, a model group and an experimental group. Each group includes 10 rats. The rats are injected with papain for molding. The rats are administered for 28 days at the same time of molding. Before the rats are put to death, blood is taken from the abdominal vein and centrifuged to obtain serum. The IL-1β content is detected. Specific results are shown in Table 1: In addition, to verify the technical solution of the present invention and small daily dosage of the single glucosamine, the inventor respectively experiments the male wistar rats in the same administration time and under the same administration dosage, and detects the IL-6 content in the serum.

IL-1β = assay: Test I: IL-1β content in serum of rats injected with papain, administered 28 days; assay type: in vivo, wistar rats; settings: rat serum, papain model, daily dosage 126 mg/kg
Description: Male wistar rats are randomly divided into a control group, a model group and an experimental group. Each group includes 10 rats. The rats are injected with papain for molding. The rats are administered for 28 days at the same time of molding. Before the rats are put to death, blood is taken from the abdominal vein and centrifuged to obtain serum. The IL-1β content is detected. Specific results are shown in Table 1: The blank group includes normal rats for arthritis modeling. The model group includes rats not administered after modeling. The experimental administration group administers the product of the present invention to the rats. The glucosamine sulfate control group administers glucosamine to the rats. The glucosamine+chondroitin sulfate+collagen control group administers glucosamine+chondroitin sulfate+collagen to the rats. IL-1β is an inflammatory factor in the serum. Normal rats contain the lowest levels of inflammatory factors, and the rats with arthritis but not administered contain the highest levels of inflammatory factors. If different products are administered to rats, the degree of arthritis is alleviated to a certain extent and the levels of inflammatory factors in the rats are reduced to be lower than that of the highest model group, but higher than normal rats.

[2] = test system: wistar rats injected with papain; assay: Test II: tenderness thresholds at modeling joints, measured with a tenderness meter; assay type: in vivo; settings: papain model, 28 days, daily dosage 126 mg/kg
Description: Male wistar rats are randomly divided into a control group, a model group and an experimental group. Each group includes 10 rats. The rats are injected with papain for molding. The rats are administered for 28 days at the same time of molding. Before the rats are put to death, the tenderness thresholds at modeling joints are measured with a tenderness meter.

For `N[C@H]1C(O)O[C@H](CO)[C@@H](O)[C@@H]1O.O=S(=O)(O)O` (some centres unmarked) [Glucosamine sulfate control group 1, Glucosamine sulfate], the “Scores of walking pain” value [1] was 0.5 ± 0.2303, the IL-6 content (IL-6; listed as Glucosamine sulfate control group) was 146.19 ± 18.15 ng/L and the IL-6 content (IL-6; listed as glucosamine sulfate control group) was “not obviously lower than the model group”. For the same compound, the IL-1β content (IL-1β) was 9.456 ± 1.657 ng/L and the Tenderness thresholds [2] was 5.607 ± 0.2602 newton.
